One may read the Ki as the equilibrium dissociation constant of an inhibitor or competing ligand from its target.

Assay [1] concerns the target β receptor. The assay is described as follows: β receptor binding (^3H-Dihydroalprenolol (DHA) binding to crude cardiac microsomal membrane). As to conditions: [^3H]DHA 1nM, rat heart microsomal membrane, 25°C, 30 minutes. The arrangement: species or system SD strain rats. The protocol:
(3) β receptor binding Test methods (a) Crude cardiac microsomal membrane preparation SD strain rats were sacrificed by decapitation. The heart was removed and homogenized in buffer (0.25M sucrose, 10mM MOPS, pH7.4) by using Polytoron (Kinematica). The homogenate was homogenized by teflon glass homogenizer. The homogenate was centrifuged (1,000g x 10 min) to remove tissue clumps and the supernatant was centrifuged (10,000g x 10 min) twice. The supernatant was centrifuged (100,000g x 60 min) to yield pellets. The pellets were resuspended in buffer (50mM Tris-HCl, pH7.4), which were referred to as crude microsomal membrane fractions. The obtained suspensions were stored at -80°C until use. (b) ^3H-Dihydroalprenolol (DHA) binding to preparative membrane Frozen crude microsomal membrane fractions were thawed. [^3H) DHA (1nM) was incubated with 50 µl of the membrane preparation at 25°C for 30 minutes in a final volume of 200 µl. At the end of the incubation period, reaction mixture was quickly filtrated over a Whatman GF/C glass filter under aspiration. The filters were washed 5 times with 3ml of the buffer (50mM Tris-HCl, pH7.4). The radioactivity was counted in 6ml of Clear-sol I in Packard scintillation counter (Packard TRI-CARB 4530).

In assay [2] the test system is Wistar rats. Kind of assay: Hypotensive effect (mean arterial pressure, femoral artery, intravenous administration). The format is in vivo. The conditions noted are these: dose 1.0 mg/kg, intravenously. How it is done:
Three Wistar rats were used per group. Each animal was placed in a cage sized to the body after cannulation of catheters into the femoral artery and vein under ether anesthesia. Blood pressure was measured in the femoral artery by means of a pressure transducer and recorded as electrically integrated values of mean arterial pressure. Heart rate was counted from instant arterial pressure pulses by running the record paper at a faster speed periodically.
The test compound was administered intravenously through a catheter cannulated in the femoral vein more than 2 hours later the completion of the operation.

`COC(=O)C1=C(C(F)(F)F)NC(C)=C(C(=O)OCCc2ccc(OCC(O)CNC(C)C)cc2)C1c1cccc([N+](=O)[O-])c1` (centres unmarked) [Dihydropyridine A, 2-{p-(2-hydroxy-3-isopropylaminopropoxy)phenyl}ethyl 1,4-dihydro-3-methoxycarbonyl-6-methyl-4-m-nitrophenyl-2-trifluoromethylpyridine-5-carboxylate] had an inhibition constant (Ki) in assay [1] of 507 nM. Also, the “Maximum change of blood pressure” value in assay [2] is -39(%).

The record behind these values is patent EP0552379B1, “DIHYDROPYRIDINE DERIVATIVES, AND PROCESS FOR THEIR PREPARATION” (FUJISAWA PHARMACEUTICAL CO., LTD., priority 1991, dated 1993).
